In US7141591B2, “1,2,4-oxadiazole derivatives as hPPAR alpha agonists” (SmithKline Beecham Corporation, priority 2000, dated 2006):

What was measured:
human PPAR gamma = target: T1, human PPAR gamma (Homo sapiens, UniProt P37231); assay: Transient transfection (transactivation) assay in CV-1 cells, hPPAR gamma; assay type: cell-based; conditions: PPAR transactivation activity, GAL4 chimera, concentration giving 50% of maximum activity, read-out: human γEC50
T1 construct: expressed in transfected cells; host or cells: CV-1 cells
T1 sequence (P37231 238-503 limits assumed): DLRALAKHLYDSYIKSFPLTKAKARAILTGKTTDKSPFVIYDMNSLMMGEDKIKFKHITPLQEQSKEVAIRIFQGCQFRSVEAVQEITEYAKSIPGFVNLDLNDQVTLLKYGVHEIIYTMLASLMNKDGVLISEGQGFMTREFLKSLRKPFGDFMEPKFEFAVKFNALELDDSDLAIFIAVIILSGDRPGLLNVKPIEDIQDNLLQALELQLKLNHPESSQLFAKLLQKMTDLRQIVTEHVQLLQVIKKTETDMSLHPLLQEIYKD
Source text: (§1) Compounds were screened for functional potency in transient transfection assays in CV-1 cells for their ability to activate the PPAR subtypes (transactivation assay). A previously established chimeric receptor system was utilized to allow comparison of the relative transcriptional activity of the receptor subtypes on the same target gene and to prevent endogenous receptor activation from complicating the interpretation of results. See, for example, Lehmann, J. M.; Moore, L. B.; Smith-Oliver, T. A.; Wilkison, W. O.; Willson, T. M.; Kliewer, S. A., An antidiabetic thiazolidinedione is a high affinity ligand for peroxisome proliferator-activated receptor γ (PPARγ), J. Biol. Chem., 1995, 270, 12953–6. The ligand binding domains for murine and human PPAR alpha, PPAR gamma, and PPAR delta were each fused to the yeast transcription factor GAL4 DNA binding domain. CV-1 cells were transiently transfected with expression vectors for the respective PPAR chimera along with a reporter construct containing five copies of the GAL4 DNA binding site driving expression of secreted placental alkaline phosphatase (SPAP) and β-galactosidase. After 16 h, the medium was exchanged to DME medium supplemented with 10% delipidated fetal calf serum and the test compound at the appropriate concentration. After an additional 24 h, cell extracts were prepared and assayed for alkaline phosphatase and β-galactosidase activity. Alkaline phosphatase activity was corrected for transfection efficiency using the β-galactosidase activity as an internal standard (see, for example, Kliewer, S. A., et. al. Cell 83, 813–819 (1995)). Rosiglitazone (BRL 49653) was used as a positive control in the hPPAR gamma assay. The positive control in the hPPAR alpha assays was 2-methyl-2-[4-{[(4-methyl-2-[4-trifluoromethylphenyl]-thiazol-5-yl-carbonyl)amino]methyl}-phenoxy]propionic acid. The positive control for PPAR delta assays was 2-{2-methyl-4-[({4-methyl-2-{trifluoromethyl)phenyl]-1,3-thiazol-5-yl}methyl)sulfanyl]phenoxy}acetic acid.

human PPAR alpha = target: T2, human PPAR alpha (Homo sapiens, UniProt Q07869); assay: Transient transfection (transactivation) assay in CV-1 cells, hPPAR alpha; assay type: cell-based; conditions: PPAR transactivation activity, GAL4 chimera, concentration giving 50% of maximum activity, read-out: human αEC50
T2 construct: expressed in transfected cells; host or cells: CV-1 cells
T2 sequence (Q07869 239-466 limits assumed): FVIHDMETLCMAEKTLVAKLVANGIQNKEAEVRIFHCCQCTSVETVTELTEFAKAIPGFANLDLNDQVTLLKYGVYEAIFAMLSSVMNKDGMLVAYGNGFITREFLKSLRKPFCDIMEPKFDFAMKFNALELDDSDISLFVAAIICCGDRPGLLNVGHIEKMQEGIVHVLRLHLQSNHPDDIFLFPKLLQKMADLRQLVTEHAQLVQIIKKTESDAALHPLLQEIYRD
Source text: as §1

human PPAR delta = target: T3, human PPAR delta (Homo sapiens, UniProt Q03181); assay: Transient transfection (transactivation) assay in CV-1 cells, hPPAR delta; assay type: cell-based; conditions: PPAR transactivation activity, GAL4 chimera, concentration giving 50% of maximum activity, read-out: human δEC50
T3 construct: expressed in transfected cells; host or cells: CV-1 cells
T3 sequence (Q03181 211-439 limits assumed): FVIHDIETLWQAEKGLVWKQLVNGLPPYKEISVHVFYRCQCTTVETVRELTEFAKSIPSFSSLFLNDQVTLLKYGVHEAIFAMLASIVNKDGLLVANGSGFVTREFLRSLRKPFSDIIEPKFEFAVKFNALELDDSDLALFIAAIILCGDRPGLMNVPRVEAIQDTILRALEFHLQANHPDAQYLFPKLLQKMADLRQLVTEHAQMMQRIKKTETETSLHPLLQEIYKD
Source text: as §1

Row | Structure (SMILES) | EC50 (human PPAR gamma) | EC50 (human PPAR alpha) | melting point | EC50 (human PPAR delta)
1 | Cc1cc(OCc2nc(-c3ccc(C(C)(C)C)cc3)no2)ccc1OC(C)(C)C(=O)O [Example 10, 2-methyl-2-[4-(3-(4-tert-butyl-phenyl)-[1,2,4]oxadiazol-5-ylmethoxy]-2-methyl-phenoxy]-propionic acid] | 11400 nM | 24 nM | 155 to 157 °C | –
2 | CC(C)c1ccc(-c2noc(COc3ccc(OC(C)(C)C(=O)O)cc3)n2)cc1 [Example 14] | 10000 nM | 77 nM | 117 °C | –
3 | CC(C)(Oc1ccc(OCc2nc(-c3ccc(C(F)(F)F)cc3)no2)cc1)C(=O)O [Example 15, 2-methyl-2-{4-[3-(4-trifluoromethyl-phenyl)-[1,2,4]oxadiazol-5-ylmethoxy]-phenoxy}-propionic acid] | 10000 nM | 98 nM | 164 °C | 4510 nM
4 | CC(C)c1ccc(-c2nc(COc3ccc(OC(C)(C)C(=O)O)cc3)no2)cc1 [Example 16, 2-methyl-2-{4-[5-(4-isopropyl-phenyl)-[1,2,4]oxadiazol-3-ylmethoxy]-phenoxy}propionic acid] | 10000 nM | 29 nM | – | 8400 nM
5 | CC(C)(Oc1ccc(OCc2noc(-c3ccc(C(C)(C)C)cc3)n2)cc1)C(=O)O [Example 17, 2-methyl-2-{4-[5-(4-tert-butyl-phenyl)-[1,2,4]oxadiazol-3-ylmethoxy]-phenoxy}propionic acid] | 10000 nM | 40 nM | – | –

Second part, the molecule after the results:

Row | EC50 (human PPAR gamma) | EC50 (human PPAR alpha) | melting point | EC50 (human PPAR delta) | Structure (SMILES)
6 | 10000 nM | 59 nM | 138 °C | 9310 nM | Cc1cc(OCc2nc(-c3ccc(C(C)C)cc3)no2)ccc1OC(C)(C)C(=O)O [Example 11]
7 | 4300 nM | 36 nM | 170 °C | 311 nM | Cc1cc(OCc2nc(-c3ccc(C(F)(F)F)cc3)no2)ccc1OC(C)(C)C(=O)O [Example 12, 2-methyl-2-{4-[3-(4-trifluoromethyl-phenyl)-[1,2,4]oxadiazol-5-ylmethoxy]-2-methyl-phenoxy}-propionic acid]
8 | 850 nM | 92 nM | 138 to 140 °C | – | CC(C)(Oc1ccc(OCc2nc(-c3ccc(C(C)(C)C)cc3)no2)cc1)C(=O)O [Example 13, 2-methyl-2-[4-(3-(4-tert-butyl-phenyl)-[1,2,4]oxadiazol-5-ylmethoxy]-phenoxy]-propionic acid]
